Results as given in patent publication US10829493B2, “Compositions and methods for treating KIT- and PDGFRA-mediated diseases” (Blueprint Medicines Corporation, priority 2019, dated 2020).
Where “and” joins values, the source holds several entries; their conditions need not be identical. Identical values can stand only once. Like-named read-outs stand apart in the source and are kept apart here.

Tests used:
[1] = Monkey brain to plasma ratio (Kp, Kpuu) after iv bolus and 2-hour iv infusion; assay type: in vivo
Protocol: A single IV bolus dose followed by a 2-hour iv infusion of the compound was administered to the monkey (3 monkeys/compound). Blood was collected from a femoral vein predose, right after the bolus administration and at the end of the infusion. The monkey was euthanized after the infusion and brain tissue was collected. Toxicokinetic evaluation of plasma (obtained by centrifugation of blood) and brain (homogenized in a buffer) was conducted to obtain brain to plasma ratio (Kp) of the compound. Kpuu was calculated by taking into consideration the fu,plasma and fu,brain as discussed above.

[2] = Rat plasma protein binding, equilibrium dialysis; assay type: in vitro ADME; details: 100% rat plasma, equilibrium dialysis 5 hours at 37° C.; for fraction unbound at 5 h, 10 μM: read-out: Fraction unbound fu,p, rat plasma
Protocol: Rat plasma protein binding of 4 and 63 were evaluated in vitro using an equilibrium dialysis method. […] Samples from the donor and receiver sides were analyzed by LC-MS/MS. Plasma protein bound and unbound fractions were calculated using the following equations—d Fraction bound (fb)*(%)=100×([Donor]5h−[Receiver]5h)/[Donor]5h (Equation 1) Fraction unbound (fu),p*(%)=100−% Bound* (Equation 2) where: [Donor]5h is measured donor concentration at 5-hour; [Received]5h is measured receiver concentration at 5-hour; fb* is bound fraction determined from plasma; fu,p* is calculated unbound fraction for plasma. Warfarin and quinidine were used as positive controls.

[3] = system: UT-7 cells; assay: UT-7 cell proliferation with SCF stimulation as a measure of wild-type KIT activity (CellTiter-Glo); assay type: cell-based, human; details: Homo sapiens, UT7, 72 h, SCF-stimulated UT-7 cell proliferation
From the text: UT-7 Cell Proliferation with SCF Stimulation Assay as a Measure of Wild-Type KIT Activity
UT-7 cells are human megakaryoblastic leukemia cell lines that can be grown in culture with dependence on granulocyte macrophage colony stimulating factor (GM-CSF) or stem cell factor (SCF). UT-7 cells respond to SCF stimulation by activation of the KIT receptor tyrosine kinase and subsequent downstream signaling that can support cell growth and proliferation (Kuriu et al, 1999; Komatsu et al, 1991; Sasaki et al, 1995). Test compounds were assayed for their ability to inhibit SCF-stimulated proliferation of UT-7 cells.
Inhibition of SCF-stimulated UT-7 cell proliferation was assessed using the CellTiter-Glo assay that quantifies the amount of adenosine triphosphate (ATP) present, which is a readout of metabolically active cells and is directly proportional to the number of viable cells in culture. The ability of test compounds to inhibit SCF-stimulated UT-7 cell proliferation was determined using a 10-point dose curve ranging from 25 μM to 95.4 pM of test compound.
UT-7 cells were maintained in IMDM supplemented with 10% FBS, 5 ng/mL GM-CSF and 100 units/mL Penicillin-Streptomycin and grown in a 37° C. humidified tissue culture incubator. UT-7 cells were washed once with serum free, GM-CSF free IMDM. Cells were then resuspended in IMDM containing 4% FBS and 50 ng/mL SCF and seeded at 2500 cells per well in a volume of 22 μL in a 384-well microplate. A 10-point dose concentration series of test compounds (25.0 μM to 95.4 pM) were then added to the cells in a volume of 3.1 μL to each well (0.25% DMSO final concentration) and placed in a tissue culture incubator (5% CO2, 37° C.) for 72 hours. After 3-days with test compound, CellTiter-Glo reagent was prepared fresh and 25 μL of reagent was added to each well. The plate was mixed by shaking for 10 minutes at RT at 300 rpm on a plate shaker. The plate was read on an EnVision plate reader using the Ultra Sensitive Luminescence protocol for a 384-well plate.

[4] = Rat brain protein binding in rat brain slices; assay type: in vitro ADME; details: rat brain slices (300 um thick); 300 um thick rat brain slices (striatum area); read-out: fu,brain (rat brain slices)
Protocol: Alternatively, rat brain protein binding of compounds 4 and 63 was evaluated in vitro by employing 300 um thick rat brain slices (striatum area) in an incubation tray. The fu,brain of compounds 4 and 63 by this method was 0.329% and 0.057% respectively. In that case, the Kp,uu, brain of 4 and 63 are 0.028 and 0.044 respectively.

[5] = Brain penetration in rats, brain to plasma ratios (Kp,brain, Kpuu,brain); assay type: in vivo, Sprague-Dawley rats; details: for concentration at 24 h / Kp uu at 24 h: intravenous
From the text: To understand the brain penetration, brain to plasma ratios of the compounds were obtained in Sprague-Dawley (SD) rats. In vivo equilibrium distribution between blood and brain in preclinical species such as rats is a commonly used parameter to evaluate brain penetration. Kp,brain is the ratio of concentrations in brain and blood (Cbrain/Cplasma) The compound's passive diffusion characteristics, its affinity for membrane transporters at the blood-brain barrier (BBB), and the relative drug binding affinity differences between the plasma proteins and brain tissue influence the Kp,brain.
The animals received IV infusion of 1 mg/kg/hr of the compound over 24 hours via jugular vein cannulation. At 24 hours, blood was collected via tail vein bleeding or cardiac puncture (under anesthesia) and centrifuged to obtain plasma samples. Brain tissues were collected and homogenized with phosphate-buffered saline (PBS). The concentrations of the compounds were obtained in the plasma and brain homogenates by LC-MS/MS analysis.

[6] = target: CYP2D6 (Homo sapiens (Human), UniProt P10635); assay: CYP inhibition in human liver microsomes, CYP2D6 (dextromethorphan); assay type: in vitro ADME; details: pooled human liver microsomes, substrate dextromethorphan
Protocol: In vitro studies in human liver microsomes were run according the standard method. […] The samples were then analyzed by LC-MS/MS for the quantification of the probe substrate left after the reaction and the IC50 values were determined by non-linear regression. The substrates for CYP2C9, CYP2D6, CYP3A4 were diclofenac, dextromethorphan and midazolam/testosterone respectively.

[7] = Rat brain protein binding in brain homogenate, equilibrium dialysis; assay type: in vitro ADME; details: equilibrium dialysis 5 hours at 37° C., read-out: fu,brain (brain homogenate)
Protocol: Similarly, rat brain protein binding of 4 and 63 were also evaluated in vitro using equilibrium dialysis method. 1 μM of the compound was assessed in brain homogenate in a dialysis block for 5 hours at 37° C. Samples from the donor and receiver sides were analyzed by LC-MS/MS. Brain protein bound and unbound fractions were calculated using the equations mentions above (Equations 1 and 2). Due to extensive protein binding, 4 was diluted further 4× for the brain homogenate measurement. The fu,brain of 4 and 63 were 0.29% and 0.1% respectively.

[8] = Sprague-Dawley, rat, brain, 1 mg/kg/hr, individual rats (Rat 1-3), IV infusion 1 mg/kg/hr over 24 hours, at 24 hours, read-out: Brain Concentration
[9] = Sprague-Dawley, rat, brain, 1 mg/kg/hr, mean of 3 rats, IV infusion 1 mg/kg/hr over 24 hours, at 24 hours, read-out: Brain Concentration (ng/mL), Mean
[10] = Sprague-Dawley, rat, brain, 1 mg/kg/hr, rat, from total mean brain concentration and fu,brain (homogenate), read-out: Unbound concentration, Brain
[11] = Sprague-Dawley, rat, plasma, 1 mg/kg/hr, individual rats (Rat 1-3), IV infusion 1 mg/kg/hr over 24 hours, at 24 hours, read-out: Plasma Concentration
[12] = Sprague-Dawley, rat, plasma, 1 mg/kg/hr, mean of 3 rats, IV infusion 1 mg/kg/hr over 24 hours, at 24 hours, read-out: Plasma Concentration (ng/mL), Mean
[13] = Sprague-Dawley, rat, plasma, 1 mg/kg/hr, rat, from total mean plasma concentration and fu,p, read-out: Unbound concentration, Plasma
[14] = individual rats (Rat 1-3), IV infusion 1 mg/kg/hr over 24 hours, at 24 hours
[15] = mean of 3 rats, IV infusion 1 mg/kg/hr over 24 hours, at 24 hours
[16] = rat, unbound brain to plasma ratio, fu,brain from brain homogenate

CYP2D6, sequence (P10635 whole entry): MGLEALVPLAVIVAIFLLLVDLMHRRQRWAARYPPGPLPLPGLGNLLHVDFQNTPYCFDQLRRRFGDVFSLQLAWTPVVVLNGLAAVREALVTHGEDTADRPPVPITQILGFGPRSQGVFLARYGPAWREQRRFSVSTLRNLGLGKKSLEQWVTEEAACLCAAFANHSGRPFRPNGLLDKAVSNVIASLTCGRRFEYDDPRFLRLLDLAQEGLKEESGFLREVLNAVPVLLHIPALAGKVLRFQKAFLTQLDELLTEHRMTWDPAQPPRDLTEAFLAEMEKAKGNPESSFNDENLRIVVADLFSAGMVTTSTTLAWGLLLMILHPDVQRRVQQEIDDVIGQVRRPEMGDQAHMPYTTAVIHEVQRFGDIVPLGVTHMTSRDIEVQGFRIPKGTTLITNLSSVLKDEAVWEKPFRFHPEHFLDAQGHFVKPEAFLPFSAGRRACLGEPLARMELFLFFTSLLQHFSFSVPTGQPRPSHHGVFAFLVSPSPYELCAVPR

Row | Fraction bound (fb), rat plasma [2] | fraction unbound at 5 h, 10 μM [2] | fraction unbound [4] | concentration at 24 h [5, 8] | concentration at 24 h [5, 9] | concentration at 24 h [5, 10] | concentration at 24 h [5, 11] | concentration at 24 h [5, 12] | concentration at 24 h [5, 13] | Brain Concentration [5, 14] | Kp, brain [5, 14] | Plasma Concentration [5, 14] | Kp, brain, Mean [5, 15] | Kpuu,brain [5, 16] | fraction unbound at 5 h, 1 μM [7] | SMILES | IC50 [3] | also measured
1 | 97.92% | 0.0208 | 0.00329 | 152 ng/mL | 183 ng/mL | 0.53 ng/mL | 859 ng/mL | 1050 ng/mL | 21.9 ng/mL | 188 ng/mL and 208 ng/mL | 0.177 and 0.168 and 0.174 | 1120 ng/mL and 1180 ng/mL | 0.17 and 0.174 | 0.024 | 0.0029 | C[C@](N)(c1ccc(F)cc1)c1cnc(N2CCN(c3ncnn4cc(-c5cnn(CCO)c5)cc34)CC2)nc1 [Compound 4, (S)-2-(4-(4-(4-(5-(1-amino-1-(4-fluorophenyl)ethyl)pyrimidin-2-yl)piperazin-1-yl)pyrrolo[2,1-f][1,2,4]triazin-6-yl)-1H-pyrazol-1-yl)ethanol] | < 90 nM | Kp (Brain:Plasma) ([1]; IV bolus followed by 2-hour iv infusion): 0.09; Kpuu ([1]; calculated with fu,plasma and fu,brain): 0.01; Kp,uu, brain (brain slice method) ([5]; rat, fu,brain from brain slices): 0.028; IC50 [6]: 10000 nM
2 | 99.8% | 0.002 | 0.00057 | 1920 ng/mL | 1700 ng/mL | 1.7 ng/mL | 1140 ng/mL | 1010 ng/mL | 2.02 ng/mL | 1890 ng/mL and 1300 ng/mL | 1.68 and 2.40 and 1.18 | 789 ng/mL and 1100 ng/mL | 1.75 | 0.84 | 0.001 | CCn1cc(-c2cc3c(N4CCN(c5ncc([C@@](C)(N)c6ccc(F)cc6)cn5)CC4)ncnn3c2)cn1 [Compound 63, reference compound] | 150 to 200 nM | Kp at 2 h ([1]; brain, IV bolus followed by 2-hour iv infusion): 1.86; Kp uu at 2 h ([1]; intravenous, calculated with fu,plasma and fu,brain): 0.92; Kp uu at 24 h ([5]; Sprague-Dawley, rat, brain, 1 mg/kg/hr, rat, fu,brain from brain slices, read-out: Kp,uu, brain (brain slice method)): 0.044; Kp uu at 24 h ([5]; Sprague-Dawley, rat, brain, 1 mg/kg/hr, rat, unbound brain to plasma ratio, fu,brain from brain homogenate, read-out: Kpuu,brain): 0.84; Kp at 24 h ([5]; Sprague-Dawley, rat, brain, iv, 1 mg/kg/hr, mean of 3 rats, IV infusion 1 mg/kg/hr over 24 hours, at 24 hours, read-out: Kp, brain, Mean): 1.8
